{"source": "EPA's ToxRefDB 2", "key": {"dog [1]": {"system": "dog", "details": "Other (NonGuideline or Guideline Not Listed); beagle; Oral; Capsule; dose end: 3 day; group: cannot be grouped; systemic / in life observation / clinical signs / emesis"}, "dog [2]": {"system": "dog", "details": "Sub-acute repeat dose toxicity, beagle, Oral, Capsule, dose end: 5 week, group: systemic"}, "rat [3]": {"system": "rat", "details": "Neurotoxicity screening battery; sprague dawley; Oral; Gavage/Intubation; dose end: 13 week; group: cannot be grouped; systemic / in life observation / body weight / body weight gain + systemic / in life observation / clinical signs / red or crusty deposits …"}, "rabbit": {"system": "rabbit", "details": "Subchronic dermal toxicity, new zealand white, Topical, dose end: 90 day, group: systemic, systemic / in life observation / clinical signs / erythema"}, "rat [4]": {"system": "rat", "details": "Subchronic oral toxicity in rodents, sprague dawley, Gavage/Intubation, dose end: 90 day, group: systemic"}, "rat [5]": {"system": "rat", "details": "Subchronic oral toxicity in rodents, wistar, Feed, dose end: 3 month, group: systemic"}, "rat [6]": {"system": "rat", "details": "Subchronic oral toxicity in rodents, sprague dawley, Feed, dose end: 13 week, group: systemic"}, "rat [7]": {"system": "rat", "details": "Combined chronic toxicity/carcinogenicity; other; Oral; Feed; dose end: 2 year; group: systemic; systemic / clinical chemistry / alanine aminotransferase (alt/sgpt) / alanine aminotransferase (alt/sgpt) + systemic / clinical chemistry / …"}, "dog [8]": {"system": "dog", "details": "Chronic toxicity, beagle, Oral, Feed, dose end: 104 week, group: systemic"}, "mouse": {"system": "mouse", "details": "Combined chronic toxicity/carcinogenicity; other; Oral; Feed; dose end: 24 month; group: systemic; systemic / clinical chemistry / alanine aminotransferase (alt/sgpt) / alanine aminotransferase (alt/sgpt) + systemic / clinical chemistry / …"}, "dog [9]": {"system": "dog", "details": "Subchronic oral toxicity in nonrodent, beagle, Feed, dose end: 90 day, group: systemic, systemic / clinical chemistry / alkaline phosphatase (alp/alk) / alkaline phosphatase (alp/alk) + systemic / in life observation / body …"}, "rat [10]": {"system": "rat", "details": "Prenatal developmental toxicity study, other, Oral, Gavage/Intubation, dose end: 15 GD"}, "[11]": {"details": "systemic / clinical chemistry / cholesterol / cholesterol + systemic / hematology / erythrocyte (rbc) count differential / erythrocyte (rbc…"}, "[12]": {"details": "systemic / pathology microscopic / testes / degeneration"}, "[13]": {"details": "systemic / organ weight / liver / relative to body weight"}, "[14]": {"details": "systemic / clinical chemistry / glutamate dehydrogenase / glutamate dehydrogenase"}, "[15]": {"details": "systemic / clinical chemistry / glutamate dehydrogenase / glutamate dehydrogenase + systemic / clinical chemistry / cholesterol / …"}, "[16]": {"details": "systemic / clinical chemistry / fatty acids / non-esterified (free) fatty acids + systemic / clinical chemistry / triglycerides / …"}, "[17]": {"details": "systemic / clinical chemistry / aminopyrine-n-demethylase / aminopyrine-n-demethylase"}, "[18]": {"details": "systemic / clinical chemistry / aminopyrine-n-demethylase / aminopyrine-n-demethylase + systemic / clinical chemistry / cytochrome p450, nos…"}, "[19]": {"details": "group: developmental, developmental / developmental malformation / bone / full supernumerary"}, "[20]": {"details": "group: developmental, developmental / developmental malformation / bone / full supernumerary + developmental / developmental malformation / kidney / dilated renal…"}, "[21]": {"details": "group: maternal, systemic / in life observation / body weight / body weight gain + systemic / in life observation / clinical signs / alopecia + systemic / in…"}}}
{"smiles": "NC(=O)c1nc(-c2cccc(-c3cc(F)ccc3OCC(F)(F)C(F)(F)F)c2)n[n-]1.O.[K+]", "note": "[MK-274]", "values": [{"measurement": "LEL", "setting": "dog [1]", "result": 240, "unit": "mg/kg/day"}, {"measurement": "LOAEL", "setting": "dog [1]", "result": "> 400", "unit": "mg/kg/day"}, {"measurement": "NEL", "setting": "dog [1]", "result": "< 240", "unit": "mg/kg/day"}, {"measurement": "NOAEL", "setting": "dog [1]", "result": "≥ 400", "unit": "mg/kg/day"}, {"measurement": "LOAEL", "setting": "dog [2]; [11]", "result": "> 450", "unit": "mg/kg/day"}, {"measurement": "NOAEL", "setting": "dog [2]; [11]", "result": "≥ 450", "unit": "mg/kg/day"}, {"measurement": "LEL", "setting": "dog [2]; [12]", "result": 10, "unit": "mg/kg/day"}, {"measurement": "NEL", "setting": "dog [2]; [12]", "result": "< 10", "unit": "mg/kg/day"}]}
{"smiles": "CN(C)C(=S)[S-].[Na+]", "note": "[Sodium dimethyldithiocarbamate]", "values": [{"measurement": "LEL", "setting": "rat [3]", "result": 250, "unit": "mg/kg/day"}, {"measurement": "LOAEL", "setting": "rat [3]", "result": 250, "unit": "mg/kg/day"}, {"measurement": "NEL", "setting": "rat [3]", "result": 5, "unit": "mg/kg/day"}, {"measurement": "NOAEL", "setting": "rat [3]", "result": 5, "unit": "mg/kg/day"}, {"measurement": "LEL", "setting": "rabbit", "result": 50, "unit": "mg/kg/day"}, {"measurement": "LOAEL", "setting": "rabbit", "result": 50, "unit": "mg/kg/day"}, {"measurement": "NEL", "setting": "rabbit", "result": "< 50", "unit": "mg/kg/day"}, {"measurement": "NOAEL", "setting": "rabbit", "result": "< 50", "unit": "mg/kg/day"}, {"measurement": "LOAEL", "setting": "rat [4]; systemic / clinical chemistry / alkaline phosphatase (alp/alk) / alkaline phosphatase (alp/alk) + systemic / clinical chemistry / glucose / …", "result": 250, "unit": "mg/kg/day"}, {"measurement": "LEL", "setting": "rat [4]; [13]", "result": 0.5, "unit": "mg/kg/day"}, {"measurement": "NEL", "setting": "rat [4]; [13]", "result": "< 0.5", "unit": "mg/kg/day"}, {"measurement": "NOAEL", "setting": "rat [4]; systemic / organ weight / liver / relative to body weight + systemic / clinical chemistry / alkaline phosphatase (alp/alk) / alkaline …", "result": 5, "unit": "mg/kg/day"}]}
{"smiles": "CC(C)(C)C(O)C(Oc1ccc(Cl)cc1)n1cncn1", "note": "(configuration not stated) [Triadimenol]", "values": [{"measurement": "LEL", "setting": "rat [5]; [14]", "result": 30, "unit": "mg/kg/day"}, {"measurement": "LOAEL", "setting": "rat [5]; [14]", "result": 30, "unit": "mg/kg/day"}, {"measurement": "NEL", "setting": "rat [5]; [15]", "result": 7.5, "unit": "mg/kg/day"}, {"measurement": "NOAEL", "setting": "rat [5]; [15]", "result": 7.5, "unit": "mg/kg/day"}, {"measurement": "LOAEL", "setting": "rat [6]; [16]", "result": 208, "unit": "mg/kg/day"}, {"measurement": "NEL", "setting": "rat [6]; [16]", "result": 8, "unit": "mg/kg/day"}, {"measurement": "NOAEL", "setting": "rat [6]; [16]", "result": 39.6, "unit": "mg/kg/day"}, {"measurement": "LEL", "setting": "rat [6]; systemic / organ weight / liver / absolute + systemic / organ weight / liver / relative to body weight + systemic / pathology microscopic / …", "result": 39.6, "unit": "mg/kg/day"}, {"measurement": "LEL", "setting": "rat [7]", "result": 25, "unit": "mg/kg/day"}, {"measurement": "LOAEL", "setting": "rat [7]", "result": 25, "unit": "mg/kg/day"}, {"measurement": "NEL", "setting": "rat [7]", "result": 6.25, "unit": "mg/kg/day"}, {"measurement": "NOAEL", "setting": "rat [7]", "result": 6.25, "unit": "mg/kg/day"}, {"measurement": "LEL", "setting": "dog [8]; [17]", "result": 211, "unit": "mg/kg/day"}, {"measurement": "LOAEL", "setting": "dog [8]; [17]", "result": 211, "unit": "mg/kg/day"}, {"measurement": "NEL", "setting": "dog [8]; [18]", "result": 56, "unit": "mg/kg/day"}, {"measurement": "NOAEL", "setting": "dog [8]; [18]", "result": 56, "unit": "mg/kg/day"}, {"measurement": "LEL", "setting": "mouse", "result": 71.4, "unit": "mg/kg/day"}, {"measurement": "LOAEL", "setting": "mouse", "result": 71.4, "unit": "mg/kg/day"}, {"measurement": "NEL", "setting": "mouse", "result": 17.9, "unit": "mg/kg/day"}, {"measurement": "NOAEL", "setting": "mouse", "result": 17.9, "unit": "mg/kg/day"}, {"measurement": "LEL", "setting": "dog [9]", "result": 44.2, "unit": "mg/kg/day"}, {"measurement": "LOAEL", "setting": "dog [9]", "result": 44.2, "unit": "mg/kg/day"}, {"measurement": "NEL", "setting": "dog [9]", "result": "< 44.2", "unit": "mg/kg/day"}, {"measurement": "NOAEL", "setting": "dog [9]", "result": "< 44.2", "unit": "mg/kg/day"}, {"measurement": "LEL", "setting": "rat [10]; [19]", "result": 60, "unit": "mg/kg/day"}, {"measurement": "LOAEL", "setting": "rat [10]; [19]", "result": 60, "unit": "mg/kg/day"}, {"measurement": "NEL", "setting": "rat [10]; [20]", "result": 25, "unit": "mg/kg/day"}, {"measurement": "NOAEL", "setting": "rat [10]; [20]", "result": 25, "unit": "mg/kg/day"}, {"measurement": "LOAEL", "setting": "rat [10]; group: maternal, systemic / in life observation / body weight / body weight gain", "result": 15, "unit": "mg/kg/day"}, {"measurement": "NEL", "setting": "rat [10]; [21]", "result": 5, "unit": "mg/kg/day"}, {"measurement": "NOAEL", "setting": "rat [10]; [21]", "result": 5, "unit": "mg/kg/day"}, {"measurement": "LEL", "setting": "rat [10]; group: maternal, systemic / in life observation / body weight / body weight gain + systemic / in life observation / food consumption / food consumption", "result": 15, "unit": "mg/kg/day"}]}
